Results from the supplement of paper PMC11451515.

Experiments:
Details in all cases: 48 h
NOMO1 [1] = assay: cell viability relative to DMSO control; higher = less cytotoxic
How it was run: (§1)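 Before seeding, each leukemia line was adapted for at least four passages in each medium. NOMO1 or SEM cells (500 cells/well) and P12-Ichikawa cells (1000 cells/well) went into 1536-well plates at 5 μl, then received library compounds in DMSO by pin dosing across 11 threefold concentrations, 47 μM to 0.79 nM. Readout was CellTiter-Glo One luminescence after 48 h at 37°C, and viability is given as a per-plate percentage of DMSO wells, with cell-free wells as background.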

P12-Ichikawa [2] = assay: as above
How it was run: as §1

SEM cells [3] = assay: as above
How it was run: as §1

NOMO1 [4] = assay: AUC of viability dose-response curve (% viability x log10 dose units); higher = less sensitive
How it was run: (§2)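 Leukemia cells adapted to each medium were seeded at 500 or 1000 cells/well in 1536-well plates and dosed with library compounds in DMSO at 11 threefold doses from 47 μM to 0.79 nM for 48 h at 37°C. CellTiter-Glo One luminescence was normalised per plate to DMSO and cell-free wells, then fitted with a four-parameter log-logistic model over log10 doses. Area under the curve was taken from this fit by the trapezoidal rule, with curves above full viability scaled and curves failing quality control removed.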

P12-Ichikawa [5] = assay: as above
How it was run: as §2

SEM cells [6] = assay: as above
How it was run: as §2

CC1(C)CCC[C@]2(C)[C@H]3CC(=O)O[C@]3(C)CC[C@@H]12
cell viability [%]
Details	NOMO1 [1]	P12-Ichikawa [2]	SEM cells [3]
HPLM + 10% dialyzed FBS, 0.000781 µM	126	118	101
HPLM + 10% dialyzed FBS, 0.00234 µM	107	115	103
HPLM + 10% dialyzed FBS, 0.00702 µM	113	114	102
HPLM + 10% dialyzed FBS, 0.0211 µM	114	114	116
HPLM + 10% dialyzed FBS, 0.0632 µM	118	116	119
HPLM + 10% dialyzed FBS, 0.19 µM	121	110	95.2
HPLM + 10% dialyzed FBS, 0.569 µM	123	115	116
HPLM + 10% dialyzed FBS, 1.71 µM	112	116	118
HPLM + 10% dialyzed FBS, 5.12 µM	126	110	115
HPLM + 10% dialyzed FBS, 15.4 µM	120	107	101
HPLM + 10% dialyzed FBS, 46.1 µM	98.6	99.1	93.3
RPMI 5 mM glucose + 10% FBS, 0.000781 µM	119	121	110
RPMI 5 mM glucose + 10% FBS, 0.00234 µM	111	120	114
RPMI 5 mM glucose + 10% FBS, 0.00702 µM	118	122	106
RPMI 5 mM glucose + 10% FBS, 0.0211 µM	121	120	107
RPMI 5 mM glucose + 10% FBS, 0.0632 µM	107	119	106
RPMI 5 mM glucose + 10% FBS, 0.19 µM	112	124	115
RPMI 5 mM glucose + 10% FBS, 0.569 µM	129	119	119
RPMI 5 mM glucose + 10% FBS, 1.71 µM	98	109	115
RPMI 5 mM glucose + 10% FBS, 5.12 µM	111	109	112
RPMI 5 mM glucose + 10% FBS, 15.4 µM	110	111	82.2
RPMI 5 mM glucose + 10% FBS, 46.1 µM	81.2	93.5	100
RPMI 5 mM glucose + 10% dialyzed FBS, 0.000781 µM	122	110	114
RPMI 5 mM glucose + 10% dialyzed FBS, 0.00234 µM	112	115	106
RPMI 5 mM glucose + 10% dialyzed FBS, 0.00702 µM	125	119	116
RPMI 5 mM glucose + 10% dialyzed FBS, 0.0211 µM	120	116	126
RPMI 5 mM glucose + 10% dialyzed FBS, 0.0632 µM	125	112	104
RPMI 5 mM glucose + 10% dialyzed FBS, 0.19 µM	106	113	112
RPMI 5 mM glucose + 10% dialyzed FBS, 0.569 µM	110	105	121
RPMI 5 mM glucose + 10% dialyzed FBS, 1.71 µM	105	107	111
RPMI 5 mM glucose + 10% dialyzed FBS, 5.12 µM	106	108	119
RPMI 5 mM glucose + 10% dialyzed FBS, 15.4 µM	101	97.5	79.2
RPMI 5 mM glucose + 10% dialyzed FBS, 46.1 µM	92.5	92.4	99.1

AUC of viability dose-response curve
Details	NOMO1 [4]	P12-Ichikawa [5]	SEM cells [6]
HPLM + 10% dialyzed FBS	473	468	470
RPMI 5 mM glucose + 10% FBS	468	456	463
RPMI 5 mM glucose + 10% dialyzed FBS	440	453	461

Cc1ccc(NC(=O)c2ccc(CN3CCN(C)CC3)cc2)cc1Nc1nc(-c2cccnc2)cs1
cell viability [%]
Details	NOMO1 [1]	P12-Ichikawa [2]	SEM cells [3]
HPLM + 10% dialyzed FBS, 0.000781 µM	103	102	56.2
HPLM + 10% dialyzed FBS, 0.00234 µM	98.1	104	90.4
HPLM + 10% dialyzed FBS, 0.00702 µM	99.3	106	87.9
HPLM + 10% dialyzed FBS, 0.0211 µM	105	103	65.4
HPLM + 10% dialyzed FBS, 0.0632 µM	96.6	106	53.1
HPLM + 10% dialyzed FBS, 0.19 µM	89.3	102	47.6
HPLM + 10% dialyzed FBS, 0.569 µM	82.6	101	42.4
HPLM + 10% dialyzed FBS, 1.71 µM	75.3	92.7	32.7
HPLM + 10% dialyzed FBS, 5.12 µM	76.8	70.5	28.2
HPLM + 10% dialyzed FBS, 15.4 µM	73	57	20.2
HPLM + 10% dialyzed FBS, 46.1 µM	75.2	41.3	24.6
RPMI 5 mM glucose + 10% FBS, 0.000781 µM	95.9	105	64.8
RPMI 5 mM glucose + 10% FBS, 0.00234 µM	104	101	99
RPMI 5 mM glucose + 10% FBS, 0.00702 µM	93	110	93.2
RPMI 5 mM glucose + 10% FBS, 0.0211 µM	94.9	113	71.2
RPMI 5 mM glucose + 10% FBS, 0.0632 µM	99.4	100	70.9
RPMI 5 mM glucose + 10% FBS, 0.19 µM	102	111	51.7
RPMI 5 mM glucose + 10% FBS, 0.569 µM	89.3	89.1	43.7
RPMI 5 mM glucose + 10% FBS, 1.71 µM	108	89.7	34.8
RPMI 5 mM glucose + 10% FBS, 5.12 µM	107	63	23.6
RPMI 5 mM glucose + 10% FBS, 15.4 µM	106	50.4	15.7
RPMI 5 mM glucose + 10% FBS, 46.1 µM	74.6	49.7	17.1
RPMI 5 mM glucose + 10% dialyzed FBS, 0.000781 µM	97.2	108	54.5
RPMI 5 mM glucose + 10% dialyzed FBS, 0.00234 µM	102	112	88.4
RPMI 5 mM glucose + 10% dialyzed FBS, 0.00702 µM	98.6	109	74.7
RPMI 5 mM glucose + 10% dialyzed FBS, 0.0211 µM	104	109	65.1
RPMI 5 mM glucose + 10% dialyzed FBS, 0.0632 µM	93.4	110	63.6
RPMI 5 mM glucose + 10% dialyzed FBS, 0.19 µM	111	108	46.7
RPMI 5 mM glucose + 10% dialyzed FBS, 0.569 µM	87.1	95.5	37.5
RPMI 5 mM glucose + 10% dialyzed FBS, 1.71 µM	86.1	95.1	29.7
RPMI 5 mM glucose + 10% dialyzed FBS, 5.12 µM	85.9	62.1	22.1
RPMI 5 mM glucose + 10% dialyzed FBS, 15.4 µM	78.8	46.1	10.9
RPMI 5 mM glucose + 10% dialyzed FBS, 46.1 µM	74.3	45.4	18

AUC of viability dose-response curve
Details	NOMO1 [4]	P12-Ichikawa [5]	SEM cells [6]
HPLM + 10% dialyzed FBS	417	417	238
RPMI 5 mM glucose + 10% FBS	468	405	255
RPMI 5 mM glucose + 10% dialyzed FBS	440	406	223
